We go through 13 compounds from ChEMBL document CHEMBL1126335, “Aryl cyanoguanidine potassium channel openers” (Bioorg Med Chem Lett, 1992).

What all share (type): functional
The species named for assay [1] is Rattus norvegicus. As to the kind of experiment: Vasorelaxant potency required to relax methoxamine contracted male Wistar Kyoto rat thoracic aorta.
Assay [2] deals with Rattus norvegicus. As to the kind of experiment: Antihypertensive activity expressed as percent maximum decrease in blood pressure at 45 umol/kg for 18-24 hrs in spontaneously hypertensive male rats when administered perorally.
In assay [3] the test system is Rattus norvegicus. Put plainly: Antihypertensive activity expressed as percent maximum decrease in blood pressure at 45 umol/kg for 12-18 hrs in spontaneously hypertensive male rats when administered perorally.
Assay [4] deals with Rattus norvegicus. As to the kind of experiment: Antihypertensive activity expressed as percent maximum decrease in blood pressure at 45 umol/kg for 6-12 hrs in spontaneously hypertensive male rats when administered perorally.
Assay [5] relates to Rattus norvegicus. As to the kind of experiment: Antihypertensive activity expressed as percent maximum decrease in blood pressure at 45 umol/Kg for 0-6 hrs in spontaneously hypertensive male rats when administered perorally.

pIC50: −log10 of the molar value. Several values for one entry are separate records, joined by “and”; a condition that tells them apart may be missing. Identical values can stand only once.

In the assay listed under Rattus norvegicus [1], `CCC(C)(C)/N=C(\NC#N)NCc1ccc(C#N)cc1` showed a pIC50 of 5.82.

Take `CC(/N=C(\NC#N)Nc1cccc([N+](=O)[O-])c1)C(C)(C)C` (centres undefined): the negative logarithm of the IC50 (pIC50) in the assay filed under Rattus norvegicus [1] was 6.77.

For `CC(/N=C(\NC#N)Nc1ccc(C#N)cc1)C(C)(C)C` (centres undefined), the Max decrease with Rattus norvegicus [2] is 25%; with Rattus norvegicus [3], 26%; with Rattus norvegicus [4], 26%; in the assay with Rattus norvegicus [5] it was 33%. Moreover, the negative logarithm of the IC50 (pIC50) in the assay listed under Rattus norvegicus [1] is 7.66.

`CC(C)(C)/N=C(\NC#N)Nc1ccc(C#N)cc1` gave a pIC50 in the assay filed under Rattus norvegicus [1] of 6.37.

Compound `CC(/N=C(\NC#N)Nc1ccccc1[N+](=O)[O-])C(C)(C)C` (centres undefined) had a negative logarithm of the IC50 (pIC50) in the assay listed under Rattus norvegicus [1] of 6.62.

With `CC(/N=C(\NC#N)Nc1ccc([N+](=O)[O-])cc1)C(C)(C)C` (centres undefined), the pIC50 in the assay listed under Rattus norvegicus [1] was 5.29.

`C/N=C(\NC#N)Nc1ccc(C#N)cc1` showed a pIC50 in the assay listed under Rattus norvegicus [1] of 3.91.

For `CC(C)/N=C(\NC#N)Nc1ccc(C#N)cc1`, in the assay filed under Rattus norvegicus [1], the negative logarithm of the IC50 (pIC50) was 4.72.

Regarding `CCC(C)(C)/N=C(\NC#N)Nc1ccc(C#N)cc1`, the pIC50 in the assay listed under Rattus norvegicus [1] is 6.92.

Consider `CC(/N=C(\NC#N)Nc1cccc(C#N)c1)C(C)(C)C` (centres undefined), for which the pIC50 in the assay listed under Rattus norvegicus [1] was 6.38.

The compound `CC(/N=C(\NC#N)Nc1ccccc1)C(C)(C)C` (centres undefined) showed a pIC50 in the assay listed under Rattus norvegicus [1] of 6.06.

For `CC1(C)Oc2ccc(C#N)cc2[C@@H](N2CCCC2=O)[C@@H]1O` [CROMAKALIM], the Max decrease with Rattus norvegicus [2] amounted to 42%; in the assay on Rattus norvegicus [3] it was 37%; with Rattus norvegicus [4], 35%; with Rattus norvegicus [5], 63%. Moreover, in the assay listed under Rattus norvegicus [1], the pIC50 is 7.26.

With `CC(N/C(=N\C#N)Nc1ccncc1)C(C)(C)C` (centres undefined) [PINACIDIL ANHYDROUS], the Max decrease with Rattus norvegicus [2] is 14%; in the assay on Rattus norvegicus [3], 21% and 23%; in the assay with Rattus norvegicus [5], 40%. Moreover, in the assay listed under Rattus norvegicus [1], the pIC50 is 7.15.

A word on the pIC50: it is −log10 of the IC50, conventionally taken in molar units. A low value points to a large IC50.
